Results on one compound are retold here after patent US3981999A, “Fish disease treatment” (Dainippon Pharmaceutical Co., Ltd., priority 1973, dated 1976).

Converted amounts (≈) assume the structure as drawn.

What all share (assay): MIC by broth serial dilution
What all share (type): cell-based

The subject of assay [1] is Pseudomonas anguilliseptica S-1. The following applies: S1, bouillon pH 7.2, 20°C, 7 hours, read-out: MIC. The method, then:
(§1) The MIC (minimum inhibitory concentration) of a test compound was determined by the serial dilution method on various pathogenic microorganisms incubated under the following experimental conditions. The lowest concentration at which the visible growth of the organism was inhibited was considered as MIC. […]
(§2) the broth-dilution method bouillon, pH 7.2, except for Vibrio (3% NaCl-bouillon, pH 7.2), Pasteurella (2% NaCl-Brain Heart Infusion, pH 7.3 and Chondrococcus (TY medium, pH 7.3) 1 drop of a bacterial suspension per test tube (100 - 1000 minimal growing units in the medium) 25°C, except for Pseud. anguilliseptica (20°C)
(§3) 48 hours, except for Pseudo. anguilliseptica ([…])

Assay [2] relates to Aeromonas salmonicida Kusuda. To be noted: bouillon pH 7.2, 25°C, 48 hours, read-out: MIC. The protocol: as §1, §2, §3
The test system of assay [3] is Pseudomonas anguilliseptica T-2. To be noted: T2, bouillon pH 7.2, 20°C, 7 hours, read-out: MIC. The protocol:
as §1, §2, §3

Assay [4] has as its system Pasteurella piscicida Al-3. The following applies: Photobacterium damselae, AL3; 2% NaCl-Brain Heart Infusion pH 7.3, 25°C, 48 hours; read-out: MIC. The protocol: as §1, §2, §3
The test system of assay [5] is Pasteurella piscicida K-1. To be noted: Photobacterium damselae, K1; 2% NaCl-Brain Heart Infusion pH 7.3, 25°C, 48 hours; read-out: MIC. The protocol:
as §1, §2, §3

The test system of the next assay is Vibrio anguillarum A-8. The following applies: A8, 3% NaCl-bouillon pH 7.2, 25°C, 48 hours, read-out: MIC. The protocol: as §1, §2, §3
Assay [6] deals with Aeromonas salmonicida Kawazu. To be noted: bouillon pH 7.2, 25°C, 48 hours, read-out: MIC. The method, then: as §1, §2, §3
Assay [7] concerns Aeromonas salmonicida Hara-1. To be noted: HARA1, bouillon pH 7.2, 25°C, 48 hours, read-out: MIC. The protocol: as §1, §2, §3
The subject of assay [8] is Aeromonas liquefaciens Y-62. To be noted: Aeromonas hydrophila, Y62; bouillon pH 7.2, 25°C, 48 hours; read-out: MIC. The method, then:
as §1, §2, §3

The MIC is the least concentration at which growth counts as inhibited. Turning to `CCn1cc(C(=O)O)c(=O)c2cnc(N3CCCC3)nc21` [PA, 5,8-dihydro-2-pyrrolidino-8-ethyl-5-oxopyrido[2,3-d]pyrimidine-6-carboxylic acid], the MIC is 0.1 µg/mL (≈ 0.347 µM) in assay [1]; 0.1 µg/mL (≈ 0.347 µM) in assay [2]; 0.1 µg/mL (≈ 0.347 µM) in assay [3]; 0.3 µg/mL (≈ 1.04 µM) in assay [4]; 1 µg/mL (≈ 3.47 µM) in [5]; 3 µg/mL (≈ 10.4 µM) in the assay with Vibrio anguillarum A-8. Besides, the MIC in [6] worked out at 0.1 µg/mL (≈ 0.347 µM); in [7], 0.1 µg/mL (≈ 0.347 µM); in assay [8], 1 µg/mL (≈ 3.47 µM).
